This is an account of results in US20240190856A1, “MELANOCORTIN-4 RECEPTOR AGONIST” (LG CHEM, LTD., priority 2021, published 2024).

Counter-ions that a name gives are not always drawn.

Assay [1] concerns the target T1, MC4R (Homo sapiens, UniProt P32245). The assay can be described thus: Binding affinity (125I-NDP-α-MSH displacement, membranes of HEK-293 cells expressing MC4R). The arrangement: expressed in transfected cells; host or cells: HEK-293 cells, membrane preparation. To be noted: 0.02 nM 125I-NDP-α-MSH, 37° C. for two hours, pH 7.0. The source says: Five subtypes of melanocortin receptor (MCR) in vivo are known, and it is known that MC4R, which is Subtype 4, is involved in energy metabolism and weight control. Since other MCR subtypes are involved in the regulation of various functions in vivo such as skin pigmentation, energy homeostasis, and exocrine functions, securing selectivity for MC4R of MC4R agonist compounds is very important in preventing possible side effects in the future. Therefore, the receptor binding abilities of MC4R agonists for each MCR subtype were measured.
After the CHO-K 1 cell line expressing human recombinant MC1R and the HEK-293 cell lines expressing MC3R, MC4R and MC5R were established, membranes were collected from each cell line. In a 96-well cell culture plate, 3 μg MC1R membrane and 0.04 nM ^125I-NDP-α-MSH per well were reacted at 37° C. for two hours. 3 μg MC3R and MC5R membrane and 0.035 nM ^125I-NDP-α-MSH were reacted at 37° C. for one hour, and […] MC4R membrane and 0.02 nM ^125I-NDP-α-MSH were reacted at 37° C. for two hours. At this time, 25 mM HEPES-KOH adsorption buffer (pH 7.0) containing MCR agonist diluted at each step concentration was added to each well and reacted. The reacted solution was transferred to a filter and washed with an adsorption buffer, and then radioactivity was measured. The value excluding the non-specific binding amount in the presence of 1 μM (MC1R) and 3 μM (MC3R, MC4R, MC5R) of NDP-α-MSH from each total binding amount was used as specific binding amounts of ^125I-NDP-α-MSH. The degree to which the ^125I-NDP-a-MSH specific binding was inhibited by the agonist diluted at each step concentration was measured. IC50 was expressed as the concentration of each agonist that inhibited specific binding of 50% of ^125I-NDP-α-MSH.
Tables 4-1 and 4-2 show the results of measuring the binding of melanocortin receptors of the compounds obtained by the above experiment in Ki (nM) units.
Target sequence in this assay (P32245 whole entry): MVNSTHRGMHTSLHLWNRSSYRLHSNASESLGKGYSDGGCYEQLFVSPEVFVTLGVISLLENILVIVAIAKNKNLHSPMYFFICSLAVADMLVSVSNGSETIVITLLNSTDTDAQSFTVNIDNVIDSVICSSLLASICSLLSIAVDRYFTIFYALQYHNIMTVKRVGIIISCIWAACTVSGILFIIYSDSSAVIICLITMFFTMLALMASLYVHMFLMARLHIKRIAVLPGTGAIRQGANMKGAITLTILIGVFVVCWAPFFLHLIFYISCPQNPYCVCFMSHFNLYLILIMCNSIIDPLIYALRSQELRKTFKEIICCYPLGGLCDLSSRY

Assay [2] has as its target T1, MC4R. Nature of the assay: cAMP assay (cAMP Hunter Gs-coupled CHO-K1 cell line). The arrangement: expressed in transfected cells; host or cells: CHO-K1 (cAMP Hunter Gs-coupled cell line). Format: cell-based. To be noted: CHO-K1 cells overexpressing MC4R, 37° C. for 30 minutes. The source says: The melanocortin receptor is a type of G-protein coupled receptor (GPCR), and the main role of G-protein is to activate secondary transducers to regulate cellular responses to many physiological stimuli through signal transduction. MC4R is a Gs-coupled receptor, and it is known that if MC4R interacts with an agonist, adenylate cyclase (AC) is activated to increase the concentration of cyclic AMP (cAMP), which is one of the secondary transducers in cells. Therefore, it is possible to evaluate the activity of melanocortin receptors by measuring the generation of cAMP signals.
After cAMP Hunter Gs-coupled cell lines (CHO-K1 cell line) in which each of MC1R, MC3R, MC4R and MC5R was overexpressed were established so that the increase in the cAMP level in cells due to agonist reaction was measurable, the cells were inoculated into each well of a white cell culture plate and incubated for 24 hours in a 37° C. incubator in the presence of 5% CO2. After the incubation, the medium was removed, and 15 μl of a 2:1 HBBS/10 mM HEPES:cAMP XS+Ab reagent was added. After 5 μl of the sample diluted 4 times with buffer was added, the vehicle concentration was set to 1%, and the MC4R agonist compound diluted at each step concentration was added, followed by reaction at 37° C. for 30 minutes. The activity (%) of each agonist compound is expressed as 100% ×(average RLU value of sample'average RLU value of vehicle control)/(average RLU value of max control−average RLU value of vehicle control), and the value was analyzed by CBIS data analysis suite (ChemInnovation, CA).
For orientation: Cyclic AMP is a second messenger, typically raised through Gs and lowered through Gi signalling.
Target sequence in this assay (P32245 whole entry, species assumed): as the sequence (P32245 whole entry) above

For assay [3], the target named is T2, MC4R (melanocortin-4 receptor) (Homo sapiens, UniProt P32245).
T2 construct: expressed in transfected cells
T2 sequence (P32245 whole entry, species assumed): as the sequence (P32245 whole entry) above
The assay can be described thus: Luciferase assay (CRE-LUC, HEK MC4R-Luc cells). In kind it is cell-based. The note with it: 5 h incubation, concentration inducing 50% of each agonist's own maximum luminescence. The procedure: In order to measure the agonist ability against MC4R (melanocortin-4 receptor), a cell line that permanently expresses the luciferase gene (CRE-LUC) under the control of MC4R and CRE (cAMP response element) was established. After a mammalian cell expression vector (pCDNA3 (Neo)) (Invitrogen) containing the MC4R gene was prepared, human embryonic kidney (HEK) cell lines were transformed by using Lipofectamine 2000 (Invitrogen) together with a vector (pCRE-Luc)(Stratagen) expressing a luciferase gene (CRE-LUC) under the control of a cAMP response element (CRE). Transformed cell lines (HEK MC4R-Luc) were incubated in a 37° C. incubator in the presence of 5% CO2 for 24 hours by using Dulbecco's Modified Eagles Medium (DMEM) containing 10% Heat-Inactivated Fetal Bovine Serum (GIBCO/BRL). The cell lines were incubated for four days in the presence of Dulbecco's Modified Eagles Medium (DMEM) containing 10 ml of selection medium (10% Heat-Inactivated Fetal Bovine Serum (GIBCO/BRL), 100 unit/ml of penicillin (GIBCO/BRL), 100 unit/ml of streptomycin (GIBCO/BRL), 800 μg/ml of Geneticin (G418) (GIBCO/BRL). The process of removing cells killed by the selection medium by replacing the medium with 10 ml of a new selection medium was repeated three times, once every 4 days. Individual colonies formed by the finally selected and propagated clones were transferred under a microscope to a 24-well cell culture plate containing 1 ml of selection medium per well and incubated for 4 days. Forskolin (SIGMA) was treated to a final concentration of 10 μM, and then incubated for five hours in a 37° C. incubator in the presence of 5% CO2. Each well was treated with 50 μl of a Bright-Glo luciferase reagent (Promega) and left at room temperature for 15 minutes, and then the luminescence of each well was measured by using a luminometer (Victor).
HEK MC4R-Luc cells were added to each well of a 96-well luminometer cell culture plate (Costar) to a size of 2.5×10^4 cells in 100 μl of a culture medium and then incubated in a 37° C. incubator in the presence of 6% CO2 for 18 hours. […] Each well was treated with 50 μl of a Bright-Glo luciferase reagent (Promega) and left at room temperature for five minutes, and then the luminescence of each well was measured by using a luminometer (Victor). […] EC0.5 MSH is expressed as a concentration that induces 50% of the maximum amount of luminescence that can be induced by NDP-α-MSH, and EC50 is expressed as a concentration that induces 50% of the maximum amount of luminescence that can be induced by each agonist. The measurements were measured using statistical software (Prizm).

For `CC(C)(C)C(=O)N([C@H]1C[C@@H](C(=O)N2CCOCC2)N(C(=O)[C@@H]2CN(C(C)(C)C)C[C@H]2c2ccc(F)cc2F)C1)[C@H]1CC[C@@H](C)CC1` [Example 1, N-((3S,5S)-1-((3S,4R)-1-(tert-butyl)-4-(2,4-difluorophenyl)pyrrolidine-3-carbonyl)-5-(morpholine-4-carbonyl)pyrrolidin-3-yl)-N-((1s,4R)-4-methylcyclohexyl)pivalamide hydrochloride], on MC4R [1] (Table 4-1), the affinity, expressed as Ki, was 74 nM. The figures for the EC50 (on MC4R [2]; in assay [3]) were 58.9 nM and 0.629 nM, respectively.
Compound `CC(C)C(=O)N([C@H]1C[C@@H](C(=O)N2CCOCC2)N(C(=O)[C@@H]2CN(C(C)(C)C)C[C@H]2c2ccc(F)cc2F)C1)[C@H]1CC[C@@H](C)CC1` [Example 2, N-((3S,5S)-1-((3S,4R)-1-(tert-butyl)-4-(2,4-difluorophenyl)pyrrolidine-3-carbonyl)-5-(morpholine-4-carbonyl)pyrrolidin-3-yl)-N-((1s,4R)-4-methylcyclohexyl)isobutyramide hydrochloride] came in with an inhibition constant (Ki) at MC4R [1] (Table 4-1) of 240 nM. In addition, the EC50 on MC4R [2] worked out at 59.6 nM; in assay [3], 2.47 nM.
Consider `CC(C)C(=O)N([C@H]1C[C@@H](C(=O)N2CCOCC2)N(C(=O)[C@@H]2CN(C(C)(C)C)C[C@H]2c2ccc(Cl)cc2F)C1)[C@H]1CC[C@@H](C)CC1` [Example 3, N-((3S,5S)-1-((3S,4R)-1-(tert-butyl)-4-(4-chloro-2-fluorophenyl)pyrrolidine-3-carbonyl)-5-(morpholine-4-carbonyl)pyrrolidin-3-yl)-N-((1s,4R)-4-methylcyclohexyl)isobutyramide hydrochloride], for which the inhibition constant (Ki) at MC4R [1] (Table 4-2) was 86 nM. Moreover, the EC50 on MC4R [2] turned out to be 49.6 nM; in assay [3] it was 0.922 nM.
For the compound `CC(C)(C)C(=O)N([C@H]1C[C@@H](C(=O)N2CCOCC2)N(C(=O)[C@@H]2CN(C(C)(C)C)C[C@H]2c2ccc(Cl)cc2F)C1)[C@H]1CC[C@@H](C)CC1` [Example 4, N-((3S,5S)-1-((3S,4R)-1-(tert-butyl)-4-(4-chloro-2-fluorophenyl)pyrrolidine-3-carbonyl)-5-(morpholine-4-carbonyl)pyrrolidin-3-yl)-N-((1s,4R)-4-methylcyclohexyl)pivalamide hydrochloride], on MC4R [1] (Table 4-1), the affinity corresponds to a Ki of 30 nM. Also, the EC50 at MC4R [2] came to 26.2 nM; in assay [3] it was 0.555 nM.
Turning to `CC1(C)CCC(N(C(=O)C(C)(C)C)[C@H]2C[C@@H](C(=O)N3CCOCC3)N(C(=O)[C@@H]3CN(C(C)(C)C)C[C@H]3c3ccc(Cl)cc3)C2)CC1` [Example 6, N-((3S,5S)-1-((3S,4R)-1-(tert-butyl)-4-(4-chlorophenyl)pyrrolidine-3-carbonyl)-5-(morpholine-4-carbonyl)pyrrolidin-3-yl)-N-(4,4-dimethylcyclohexyl)pivalamide hydrochloride], the Ki on MC4R [1] (Table 4-2) is 32 nM. Besides, the values for the EC50 (on MC4R [2]; in assay [3]) were 51.4 nM and 4.04 nM, respectively.

What is called Ki is a dissociation constant, usually derived from enzyme kinetics or from competition with a known ligand. A low value points to higher affinity. One may read the EC50 as the midpoint of the concentration-response curve. Read a high EC50 as lower potency in that assay.
